Data on two molecules can be found in patent publication US20030171340A1 (priority 2002, published 2003).

The test system of assay [1] is New Ps isolate from sediment. Put plainly: Growth of new Ps isolate from sediment in the presence of tetracycline or tetracycline-Fe2+ complex. It is filed as cell-based, Pseudomonas. The settings on record: experiment C. How it is done:
(§1) Individual components were tested for inhibition or enhancement of Pseudomonas isolated from the site.

Assay [2] deals with Pseudomonas isolate (Ps isolate, Susquehanna flats). Put plainly: Growth of Pseudomonas isolate in TSB in the presence of tetracycline, metal cations or tetracycline metal complexes. It is filed as cell-based. As to conditions: for Ps isolate growth (S/I/+4): experiment D. As to the method: as §1

`CN(C)[C@@H]1C(O)=C(C(N)=O)C(=O)[C@@]2(O)C(O)=C3C(=O)c4c(O)cccc4[C@@](C)(O)[C@H]3C[C@@H]12` [tetracycline]: the “Ps isolate growth (R/I/S)” value in assay [1] (8 μg/mL), in assay [1] (40 μg/mL) and in assay [1] (100 μg/mL) was “R” in each case.

Regarding copper acetate [Cu^2+], the Ps isolate growth result in assay [2] (experiment A, metal cation alone, 1 mL TSB + 4 μl (4 μg/mL)) is listed as “Growth”. Moreover, the “Ps isolate growth (S/I/+4)” value in assay [2] (1 μg/mL) is listed as “+4”; in assay [2] (4 μg/mL), “I”; in assay [2] (8 μg/mL), “S (no growth)”; in assay [2] (metal cation alone, concentration not given), “+4”.
